Columns and labels:
Assay type in all cases: physicochemical
[1] = Qualitative switchability assessment of BA (Example 1B)
Source text: The BA amidine's ability to act as a switchable hydrophilicity solvent for the separation of a selected substance is dependent on its ability to switch from the hydrophobic form to a hydrophilic form. This is achieved by adding water to provide an aqueous layer and decreasing the pH of the aqueous layer, namely by dissolving CO2 in the aqueous layer. When carbon dioxide dissolves in water, it forms carbonic acid with pKa1 of 6.4. The resultant dissociation is sufficient to protonate a hydrophobic amidine, causing it to become charged forming a hydrophilic amidinium bicarbonate (BAB). In this preliminary switching study, the amidine's ability to act as a base and its ability to switch hydrophilicity were studied.
Switching behavior was studied for BA over various periods of time. A glass vial (4 mL) was prepared, containing distilled water (1.0 mL) and BA amidine (0.5 mL).
CO2 was bubbled through the vial for roughly 30 minutes, until the top layer had disappeared showing that a hydrophilic solution of BAB in water had been formed.
A magnetic stirrer was placed in the vial. The vial was suspended in an 80° C. oil bath and stirred. The vial was intermittently removed from the bath and monitored for the presence of a second layer after 20, 50 and 75 minutes. The formation of a second layer (hydrophobic BA) was noted after 20 minutes in the oil bath.

[2] = Quantitative switching study of BA by 1H NMR (Example 1D)
Description: A methanol-d4 solution was prepared containing a sodium acetate internal standard (48.8 mM).
Two 4 mL glass vials containing 1.0 mL D2O and 0.5 mL BA were prepared and shaken. A 50 μL sample was withdrawn from each layer of one vial and combined with 0.50 mL of the sodium acetate standard solution in each of two NMR tubes: the top layer (BA) in a first tube; the bottom layer (aqueous) in a second tube.
Carbon dioxide was bubbled through the unsampled vial until the BA had completely converted to BAB, as evidenced by the disappearance of the top layer. The pH of the solution was measured using pH paper to be approximately 8-9. A 50 μL sample was withdrawn from the BAB/D2O solution and added to 0.50 mL of the sodium acetate standard solution in a third NMR tube.
The 4.0 mL vial from which the last NMR sample was withdrawn was then heated at 80° C. for 1 h and stirred by a magnetic stirrer. Bubbles of CO2 were observed escaping from the solution and a top layer, hydrophobic amidine, appeared. After cooling the vial to room temperature, a 50 μL sample was withdrawn from each layer and combined with 0.50 mL of the sodium acetate standard in two NMR tubes: the top layer (BA) in a fourth tube; the bottom layer (aqueous) in a fifth tube.
The NMR spectra of all five samples are shown in FIG. 10 with the first to fifth tubes shown from top to bottom. […] In addition, using the ‘c’ and ‘d’ protons provided stronger signals, to improve accuracy. Based on the strength of the ‘c’ and ‘d’ signals, 11% of the BA remained in the aqueous phase as BAB after the experiment
Using dioxane as the internal standard gave the same results (11% BAB retention in the aqueous phase) as sodium acetate.
The same experiment was repeated except that the temperature of the heating of the 4.0 mL vial was increased from 80° C. to 90° C. A similar retention of BAB in the aqueous phase (12%) was observed.

[3] = Water miscibility of amidines in neutral form and after CO2
Source text: This represents relatively hydrophilic character. The amidines A-D are unsatisfactory for use as a switchable hydrophilicity solvent because they are insufficiently hydrophobic in their amidine form. […] Since such amidines are not separable from water after switching from their hydrophilic to hydrophobic forms, they are unsuitable for use in the present invention.
Exposure of a 1:1 by volume mixture of two immiscible liquids, hydrophobic PA and water, to gaseous CO2, at 1 atmosphere, caused a conversion to a hydrophilic liquid comprising an aqueous solution of N,N,N′-tripropylbutyramidinium bicarbonate (PAB) (see FIG. 1 for the chemical scheme in which R^1-4 are propyl). NMR data for the PA/water system is presented in FIGS. 4 and 5 and IR data in FIG. 6. FIGS. 4A and 5A show ^1H and ^13C NMR data for PA. After switching, the detection of the N,N,N′-tripropylbutyramidinium bicarbonate salt was confirmed by ^1H and ^13C NMR as shown in FIGS. 4B and 5B.
Similarly, exposure of a 1:1 by volume mixture of two immiscible liquids, hydrophobic BA and water, to gaseous CO2, at 1 atmosphere, caused a conversion to a hydrophilic liquid comprising an aqueous solution of N,N,N′-tributylpentanamidinium bicarbonate (BAB) (see FIG. 1 for the chemical scheme in which R^1-4 are butyl). NMR data for the […] is presented in FIGS. 7 and 8 and IR data in FIG. 9. […] show ^1H and ^13C NMR data for BA. After switching, the detection of the N,N,N′-tributylpentanamidinium bicarbonate salt was confirmed by ^1H and ^13C NMR as shown in FIGS. 6B and 7B. The hydrophilic aqueous solution of BAB was converted back into hydrophobic BA and water by heating at 80° C.

[4] = Polarity study with solvatochromatic dye Nile Red (Example 3); conditions: water-saturated BA or aqueous solution of BAB
Description: The maximum wavelength of absorption, λmax, of a switchable hydrophilicity solvent, N,N,N′-tributylpentanamidine (BA), was analyzed in its hydrophobic and hydrophilic forms using the solvatochromatic dye, Nile Red. A 1 Dram vial was prepared containing 1 mL of distilled water to which 1 mL of BA was added. […] This ensured saturation of the BA phase with water. The top phase comprising the BA liquid was pipetted into a quartz cuvette (Semi-Micro Cells, Self Masking Black Walls Spectrosil® Quartz, Starna Cells, Atascadero, Calif., USA) and 1 mg of Nile Red was added, to provide a bright orange-magenta solution. The ultraviolet absorbance spectrum was acquired on an Agilent Technologies ultraviolet/visible spectrometer 50-60 Hz with UV-Visible Chemstation software. The λmax was 510 nm. Distilled water (1.0 mL) was then added to the quartz cuvette and carbon dioxide was slowly bubbled into the mixture for 1 hour to switch the BA to its ionic form, N,N,N′-tributylpentanamidinium bicarbonate (BAB), after which the homogenous mixture turned purple. The ultraviolet absorbance spectrum of the aqueous solution of the dye and ionic salt was then acquired as discussed in the previous paragraph. The λmax was 570 nm.

## CCCCN=C(CCCC)N(CCCC)CCCC [BA, N,N,N′-tributylpentanamidine]
[1]; 1.0 mL water + 0.5 mL BA
  time of CO2 bubbling until top layer disappeared: roughly 30 minutes
[1]; 80 °C oil bath, stirred
  heating time to formation of second (hydrophobic) layer: 20 min
[2]; 80 °C, 1 h, sodium acetate internal standard
  BA remaining in the aqueous phase as BAB after heating: 11%
[2]; from 1H NMR peak integrations
  BA recovered when amidinium bicarbonate solution is heated: 89%
[3]; CO2 and water
  miscibility with water after CO2 trigger (amidinium bicarbonate form): became miscible
[3]; no CO2
  miscibility with water, neutral (unprotonated) amidine form: immiscible with water
[4]
  maximum wavelength of absorption (λmax) of Nile Red: 510 nm

— patent publication US8900444B2, “Switchable hydrophilicity solvents and methods of use thereof” (Queen's University at Kingston, priority 2009, dated 2014)
